Reference: PubChem BioAssay (NCI)
“And” between values parts separate entries of the source, which are not always exact repeats. Equal entries are not always repeated.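 1) Cells in 96-well plates. 2) Compound, 48 h, 5 concentrations. 3) Linear interpolation between surrounding doses. 4) Unreached endpoint = highest concentration. The concentration for 50% growth inhibition is given as GI50. TGI marks complete inhibition of growth.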

Experiments:
Assay in all cases: NCI-60 cell line screen, 48 h
K-562 leukemia = system: K-562 leukemia
ACHN renal = system: ACHN renal
OVCAR-8 ovarian = system: OVCAR-8 ovarian
NCI-H23 lung = system: NCI-H23 lung
MOLT-4 leukemia = system: MOLT-4 leukemia
SNB-19 CNS = system: SNB-19 CNS
SK-OV-3 ovarian = system: SK-OV-3 ovarian
OVCAR-5 ovarian = system: OVCAR-5 ovarian
786-0 renal = system: 786-0 renal
KM12 colon = system: KM12 colon

Row | SMILES | TGI (K-562 leukemia) [µM] | TGI (ACHN renal) [µM] | TGI (OVCAR-8 ovarian) | TGI (NCI-H23 lung) | TGI (MOLT-4 leukemia) [µM] | TGI (SNB-19 CNS) | TGI (SK-OV-3 ovarian) [µM] | TGI (OVCAR-5 ovarian) | TGI (786-0 renal) [µM] | TGI (KM12 colon) | GI50 (K-562 leukemia) | GI50 (ACHN renal) [µM] | GI50 (OVCAR-8 ovarian) | GI50 (NCI-H23 lung) [µM] | GI50 (MOLT-4 leukemia) [µM] | GI50 (SNB-19 CNS) [µM] | GI50 (SK-OV-3 ovarian) [µM] | GI50 (OVCAR-5 ovarian) | GI50 (786-0 renal) [µM] | GI50 (KM12 colon)
1 | C[N+]1=C(c2cccnc2/C=N/O)OCC1(C)C | > 100 | > 100 | > 100 µM | > 100 µM | > 100 | > 100 µM | > 100 | > 100 µM | > 100 | > 100 µM |  |  |  |  |  |  |  |  |  | 
2 | CCOC(=O)/C(=C/CC/C(C)=C/CC/C(C)=C/CCc1ccoc1)CC(=O)N1CCCCC1 | 96 | 10.3 | 40.2 µM | 15.1 µM | 9.67 | 41.3 µM | 36.1 | 14.9 µM | 18.8 | 19.2 µM | 3.91 µM | 2.93 | 3.97 µM | 3.12 | 4.03 | 4.05 | 8.27 | 3.1 µM | 5.29 | 4.59 µM
3 | O=C(COc1ccc(/C=C2\Oc3ccc4ccccc4c3C2=O)cc1)c1ccc([N+](=O)[O-])cc1 | > 100 | 88.2 | 23.2 µM | 29.4 µM | 5.56 | 35.6 µM | 73.7 | 30.7 µM | 34.6 | 23.4 µM | 5.19 µM | 28.3 | 4.88 µM | 12.5 | 1.87 | 15.6 | 24.2 | 16.4 µM | 14.7 | 10.9 µM
4 | Cc1cccc2c(C3=C(c4cn(C)c5ccccc45)C(=O)NC3=O)cn(C)c12 | > 25 | > 25 | > 25 µM | > 25 µM | > 25 | > 25 µM | > 25 | > 25 µM | > 25 | > 25 µM | > 19.7 µM | 13.1 | 12.2 µM | > 25 | > 25 | > 25 | > 22.5 | > 25 µM | > 22.1 | > 20.8 µM
5 | C#CCN(N=O)C(=O)NC(CCCCNC(=O)OCc1ccccc1)C(=O)OCc1ccccc1 (centres undefined) | 50.5 | > 100 | 38.9 µM | > 100 µM | 41.5 | > 100 µM | > 100 | 84 µM | 32.5 | > 100 µM |  |  |  |  |  |  |  |  |  | 
6 | O=CC(OC(=O)c1ccccc1)C(OC(=O)c1ccccc1)C(COC(c1ccccc1)(c1ccccc1)c1ccccc1)OC(=O)c1ccccc1 (centres undefined) | 27.4 | 24 | 54.1 µM | 34.6 µM | 11.7 | 28.6 µM | 48.2 | 43.9 µM | 41 | 31 µM | 8.09 µM | 11.4 | 4.76 µM | 15.4 | 2.64 | 15.3 | 21.3 | 21.6 µM | 20 | 14.3 µM
7 | O=C(O)C1C2C=CC(O2)C1C(=O)NCc1cccnc1 (centres undefined) | > 100 | > 100 | > 100 µM | > 100 µM | > 100 | > 100 µM | > 100 | > 100 µM | > 100 | > 100 µM |  |  |  |  |  |  |  |  |  | 
8 | CC(C)C[C@H](CC(=O)O)C(=O)N[C@@H](Cc1c[nH]c2ccccc12)C(=O)N[C@@H](C)c1ccccc1 | > 25 | > 25 | > 25 µM | > 25 µM | > 25 | > 25 µM | > 25 | > 25 µM | > 25 | > 25 µM | > 25 µM | > 25 | > 25 µM | > 25 | > 25 | > 25 | > 25 | > 25 µM | > 25 | > 25 µM
9 | C[C@@H](C1CC[C@H]2[C@@H]3[C@@H]4O[C@@H]4[C@@]4(O)CC=CC(=O)[C@]4(C)[C@H]3C[C@H](O)[C@]12C)[C@H]1C[C@]2(C)O[C@]2(C)C(=O)O1 (some centres undefined) | > 100 | > 100 | > 100 µM | > 100 µM | > 100 | > 100 µM | > 100 | > 100 µM | > 100 | > 100 µM |  |  |  |  |  |  |  |  |  | 
10 | O=C(CCc1nc(=S)[nH][nH]1)Nc1cc(Cl)ccc1Cl | > 100 | > 100 | > 100 µM | > 100 µM | > 100 | > 100 µM | > 100 | > 100 µM | > 100 | > 100 µM |  |  |  |  |  |  |  |  |  | 
11 | COC(=O)C(C(=O)C(=O)Nc1ccc(C)cc1)c1nc2ccc([N+](=O)[O-])cc2[nH]c1=O (centres undefined) | > 100 | > 100 | > 100 µM | > 100 µM | > 100 | > 100 µM | > 100 | > 100 µM | > 100 | > 100 µM |  |  |  |  |  |  |  |  |  | 
12 | CC[C@@]1(O)C(=O)OCc2c1cc1n(c2=O)Cc2cc3cc(Cl)ccc3nc2-1 | > 100 | 0.0107 | 0.109 µM and 0.203 µM | 0.00545 µM and 0.0196 µM |  | 0.866 µM and 3.82 µM | 39.9 | 0.363 µM and 0.318 µM | 0.327 | 0.195 µM and 0.446 µM | 0.00916 µM and 0.0873 µM | 0.00228 | 0.00117 µM and 0.0112 µM | 0.00226 | 0.00119 | 0.00345 | 0.0152 | 0.0635 µM and 0.0706 µM | 0.00519 | 0.0485 µM and 0.127 µM
13 | Nc1nc(N)c2c(n1)NC(c1sc(Cl)nc1Cl)CC(c1ccccc1)=N2 (centres undefined) | 20.9 | 16.8 | 22.2 µM | 23.3 µM | 20.8 | 17.8 µM | 15.3 | 21.9 µM | 19.2 | 15.3 µM | 1.68 µM | 4.56 | 4.8 µM | 8.23 | 4.06 | 5.15 | 3.6 | 10.2 µM | 5.05 | 3.79 µM
14 | CNC(=O)c1cc(Oc2ccc3nc(NC(=O)Nc4ccc(CN5CCOCC5)c(C(F)(F)F)c4)sc3c2)ccn1 | > 100 | 4.21 | 7.71 µM | 4.22 µM | > 100 | 16.4 µM | 4.81 | 6.9 µM | 4.32 | 2.31 µM | 1.53 µM | 1.68 | 2.63 µM | 1.7 | 2.57 | 3.82 | 2.18 | 2.44 µM | 2.22 | 0.446 µM
15 | O/N=C1/CCCC/C1=C/C=C/c1ccccc1 | 96.1 | 72.5 | > 100 µM | 60.5 µM | 67.1 | > 100 µM | > 100 | 76 µM | 55 | 47.1 µM |  |  |  |  |  |  |  |  |  | 
